The values below come from patent US4461901A, “Pyridyl containing 1,2-benzisothiazole-3-amine derivatives” (American Home Products Corporation, priority 1983, dated 1984).

SMILES strings stand for the structures. Structures can show the parent of a compound that is named as a salt.

For series [1] the following is noted: cited from earlier work.
A further series concerns the target T1, histamine H2 receptor (Cavia porcellus, UniProt P47747).
T1 construct: from tissue; host or cells: guinea pig right atrium (isolated, spontaneously beating)
Description: guinea pig heart atrium test: inhibition of histamine-induced positive chronotropic response in the spontaneously beating right atrium. As to conditions: read-out: pA2 Value (apparent dissociation constant of the H2 antagonist) (converted). On the procedure:
The guinea pig heart atrium test is carried out as follows.
A guinea pig right atrium is suspended at 1 g tension (isometric) in the thermostatically controlled (32° C.) tissue bath (10 ml) containing oxygenated (95% O2; 5% CO2) Krebs-Haenseleit buffer (pH 7.4). The tissue is allowed to stabilize over 1 hour. Individual contractions are recorded with a force-displacement transducer through a strain gauge coupler. A control dose-response curve to histamine in the above described tissue bath is obtained after which the tissue is washed 3 times and allowed to re-equilibrate to basal rate. The test compound is added to the tissue bath at the desired final concentration. Thirty minutes after addition of the compound, a fresh histamine dose response curve is again obtained. Then the response to histamine in the presence of antagonist is compared to the histamine control response. This procedure is repeated, using fresh tissues, for each concentration of antagonist tested.

The next series deals with gastric acid secretion. Description: gastric secretion in the rat, modified Shay procedure of pylorus ligation. The settings on record: 32 mg/kg, interduodenally (i.d.), male Charles River rats, four hours after ligation. Format: in vivo. On the procedure: The procedures for these tests and the results for some of the compounds of the invention are presented at the end of the following examples, which will serve to illustrate the present invention.
The procedure for testing gastric secretion in the rat, a modification of the procedure of Shay et al., Gastroenterology, 26, 906-13 (1954) is carried out as follows.
Male Charles River rats weighing 200-300 grams are deprived of food but not water for 24 hours prior to use. Water is, however, withheld during the experiment. The rats are weighed, anesthetized, and the pylorus ligated according to the method of Shay et al. Treatment or vehicle control is then administered interduodenally (i.d.). Rats are housed 2/cage and sacrificed with CO2 four hours after ligation. The stomachs are removed, rinsed, and contents emptied into a graduated centrifuge tube. The tubes are centrifuged for 20 minutes at 2,000 RPM and the volume of gastric juice recorded. Any samples obviously contaminated by feces, food or hemolysis are eliminated. An aliquot of each is frozen for later analysis of Na^+, K^+ and Cl^- concentration. The pH is measured and 1 ml of gastric juice is titrated with 0.1N NaOH to a pH of 7.0-7.4. Titratable acid output is calculated in microequivalents and the percent inhibition of acid output is calculated as follows: [formula]

Another series relates to H2 histamine receptors. As to conditions: background statement; cited from earlier work.

T1 sequence (P47747 whole entry): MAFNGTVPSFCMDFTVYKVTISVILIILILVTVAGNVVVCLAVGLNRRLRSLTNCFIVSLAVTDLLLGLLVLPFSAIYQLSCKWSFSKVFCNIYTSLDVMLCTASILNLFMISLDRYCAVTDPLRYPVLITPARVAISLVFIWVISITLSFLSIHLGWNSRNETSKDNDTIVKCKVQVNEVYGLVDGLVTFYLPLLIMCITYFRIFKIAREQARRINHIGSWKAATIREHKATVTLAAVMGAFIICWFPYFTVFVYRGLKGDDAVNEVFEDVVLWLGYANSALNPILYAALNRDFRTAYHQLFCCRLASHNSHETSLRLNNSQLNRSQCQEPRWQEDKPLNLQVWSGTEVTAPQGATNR

On to `CN/C(=N/CCSCc1nc[nH]c1C)NC#N` [Cimetidine], for which the confusional states result in series [1] (elderly patients) is listed as “tendency to cause confusional states in elderly patients”. In series [1] (patients), the anti-androgenic activity entry is reported as “anti-androgenic activity” and the duration of action result is recorded as “short duration of action”. As for `Nc1ncccc1OCCCNC1=NS(=O)(=O)c2ccccc21` [Example 2, N-[3-[(2-amino-3-pyridinyl)oxy]propyl]-1,2-benzisothiazol-3-amine 1,1-dioxide, hydrochloride, hemihydrate], at histamine H2 receptor, the Kb was 10 nM.

In the case of `Nc1cc(OCCCNC2=NS(=O)(=O)c3ccccc32)ccn1` [Example 3, N-[3-[(2-amino-4-pyridinyl)oxy]propyl]-1,2-benzisothiazol-3-amine 1,1 dioxide, hydrochloride, hemiethanolate], the “% Inhibition (of acid output)” value in the series with gastric acid secretion stood at 57%. At histamine H2 receptor, the Kb was 10 nM. As to `CNC(=NC#N)NCCSCc1csc(N=C(N)N)n1` [tiotidine], the “selective H2 antagonist activity versus cimetidine” value in the series on H2 histamine receptors is “greater activity than cimetidine”.
